# Values quoted from earlier work, collected in patent US20080038219A1, “Novel Composition for a Topical Skin Treatment Base and Medicated Applications Thereof” (CALGENEX CORPORATION, priority 2006, published 2008).
# Tested on: mild-to-moderate acne
# Details: versus tretinoin 0.05%, benzoyl peroxide 5%, topical erythromycin 2%
compound,measurement,value
O=C(O)CCCCCCCC(=O)O [azelaic acid],efficacy in treatment of mild-to-moderate acne,efficacy comparable
